# Patent EP4653448A1, “COMPOUND FOR RNA CAPPING AND USE THEREOF” (Guangzhou Henovcom Bioscience Co. Ltd., priority 2023, dated 2024)
# Assays:
# HEK293T cells = test: Expression efficiency of capped luciferase mRNAs in HEK293T cells; assay type: cell-based; conditions: 6 h after transfection of capped luciferase mRNA
# Method: • 1) HNE293T cells were cultured in DMEM medium containing 10% FBS and penicillin/streptomycin at 37°C and 5% CO2. • 2) The cultured HEK293T cells were spread in a 96-well plate with 1.25 × 10^4 cells per well. • 3) After the cells completely adhered to the wall, 0.5 µg of a mixture of mRNA sample and Polyplus jet[…] was added to each well of cells, and cultured at 37°C and 5% CO2 for 6 h. • 4) The growth medium was removed from the cells to be tested and the cells were rinsed with PBS. After centrifugation to remove PBS, 50 µL of 1x lysis buffer was added thereto, and cells and all liquid were transferred to a microcentrifuge tube, and then centrifuged at 12000 x g at 4°C for 2 min. • 5) The supernatant was transferred to a new tube. Fluorescence readings were detected using the ONE-Glo Luciferase Assay System Kit.
# All test compounds, N-7413, negative control and blank control were tested under the same conditions, and some experimental results in the test results are shown in Table 3. Table 3. Relative fluorescence readings for capped mRNAs
# The assay was performed according to the method described in Example 21. All test compounds, N-7413, negative control and blank control were tested under the same conditions, and some experimental results in the test results are shown in Table 5. Table 5 Relative fluorescence readings for capped mRNAs
# T7 RNA Polymerase = T7 RNA Polymerase (Escherichia phage T7, UniProt P00573); test: Detection of the efficiency of mRNA capping synthesis (in vitro transcription, product yield); assay type: biochemical; conditions: 20 µL mRNA synthesis reaction system
# Chain of T7 RNA Polymerase (P00573 whole entry): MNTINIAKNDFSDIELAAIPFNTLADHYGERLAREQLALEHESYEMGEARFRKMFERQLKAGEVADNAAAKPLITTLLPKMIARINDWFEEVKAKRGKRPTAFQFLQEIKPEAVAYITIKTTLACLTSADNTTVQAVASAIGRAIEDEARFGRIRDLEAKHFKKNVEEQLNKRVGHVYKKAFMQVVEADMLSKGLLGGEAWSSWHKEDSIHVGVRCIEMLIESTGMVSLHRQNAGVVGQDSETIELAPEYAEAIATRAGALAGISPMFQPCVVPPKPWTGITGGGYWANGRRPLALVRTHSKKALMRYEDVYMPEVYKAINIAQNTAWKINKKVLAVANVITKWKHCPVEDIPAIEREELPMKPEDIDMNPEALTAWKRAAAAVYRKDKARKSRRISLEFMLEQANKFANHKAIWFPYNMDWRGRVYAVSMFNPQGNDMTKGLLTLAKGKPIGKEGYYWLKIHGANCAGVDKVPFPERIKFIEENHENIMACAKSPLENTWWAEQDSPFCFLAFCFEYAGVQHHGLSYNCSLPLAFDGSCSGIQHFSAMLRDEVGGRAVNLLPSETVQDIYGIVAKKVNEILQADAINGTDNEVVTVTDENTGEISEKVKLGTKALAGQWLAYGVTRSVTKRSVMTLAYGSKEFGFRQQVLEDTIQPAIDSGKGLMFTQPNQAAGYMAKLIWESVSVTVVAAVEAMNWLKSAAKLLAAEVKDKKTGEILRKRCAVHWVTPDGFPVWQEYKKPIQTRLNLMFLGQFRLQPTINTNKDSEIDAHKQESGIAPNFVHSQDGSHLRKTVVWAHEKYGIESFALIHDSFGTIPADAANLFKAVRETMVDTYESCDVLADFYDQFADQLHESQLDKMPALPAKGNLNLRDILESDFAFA
# Method: • 1) The plasmids were linearized and the DNA templates were purified. • 2) The mRNA was synthesized by in vitro transcription, using the capping structure prepared in the present disclosure, positive control CleanCap®AG (3'OMe) (Trilink, N-7413), negative control (uncapped mRNA) and blank control (DNase/RNase-Free water), respectively. Reaction system
# The reaction was carried out at 37°C for 2 to 3 h. TURBO DNase digestion was carried out for 15 min. The mRNA was precipitated by LiCl for 30 min or more or overnight, and the mRNA precipitate was washed with 75% ethanol, dried briefly to evaporate the ethanol, and the mRNA was redissolved with RNase-Free water.
# In the reaction system listed in Table 1, since the solubility of different test compounds varies in different solutions, adjustments can be made as needed. For ease of operation, the commonly used concentrations are 10 mM and 100 mM. […] If the initial concentration of the test compound is 10 mM, the dosage is 8 µL. Regardless of the initial concentration, the dosages of different test compounds were the same, and the final concentrations were also the same.
# For example, when testing compounds S17 and S19, their initial concentration was 10 mM, and the addition volume was 8 µL. When testing compounds 5 and 6, their initial concentration was 100 mM, and the addition volume was 0.8 µL.
# The assay was performed according to the method described in Example 20.
# [1] = 0.5 µg per well, reading of N-7413 = 1 (Table 3)
# [2] = test compound 4 mM, 37°C 2 to 3 h (Table 2)
# [3] = reading of N-7413 = 1 (Table 5)
smiles,measurement,setting,value
COCCOCCOCC(=O)NC[C@H]1[C@@H](O)[C@H](n2c[n+](C)c3c(=O)[nH]c(N)nc32)O[C@@H]1COP(=O)([O-])OP(=O)(O)OP(=O)(O)OC[C@H]1O[C@@H](n2cnc3c(N)ncnc32)[C@H](OC)[C@@H]1OP(=O)(O)OC[C@H]1O[C@@H](n2cnc3c(=O)[nH]c(N)nc32)[C@H](O)[C@@H]1O [Compound 5],Relative fluorescence reading,HEK293T cells; [1],1.86
same,Final product mass,T7 RNA Polymerase; [2],180 µg
COCCOCCOCCOCCOCC(=O)NC[C@H]1[C@@H](O)[C@H](n2c[n+](C)c3c(=O)[nH]c(N)nc32)O[C@@H]1COP(=O)([O-])OP(=O)(O)OP(=O)(O)OC[C@H]1O[C@@H](n2cnc3c(N)ncnc32)[C@H](OC)[C@@H]1OP(=O)(O)OC[C@H]1O[C@@H](n2cnc3c(=O)[nH]c(N)nc32)[C@H](O)[C@@H]1O [Compound 6],Relative fluorescence reading,HEK293T cells; [1],1.90
same,Final product mass,T7 RNA Polymerase; [2],117 µg
COC[C@]1(F)[C@@H](COP(=O)(O)OP(=O)(O)OP(=O)(O)OC[C@H]2O[C@@H](n3cnc4c(N)ncnc43)[C@H](OC)[C@@H]2OP(=O)([O-])OC[C@H]2O[C@@H](n3cnc4c(=O)[nH]c(N)nc43)[C@H](O)[C@@H]2O)O[C@@H](n2c[n+](C)c3c(=O)[nH]c(N)nc32)[C@@H]1O [Compound D1],Relative fluorescence reading,HEK293T cells; [3],2.07
COC1C(OP(=O)([O-])OCC2OC(n3cnc4c(=O)[nH]c(N)nc43)C(O)C2O)C(COP(=O)(O)OP(=O)(O)OP(=O)(O)OCC2OC(n3c[n+](C)c4c(=O)[nH]c(N)nc43)C(O)C2(F)CN=[N+]=[N-])OC1n1cnc2c(N)ncnc21 (stereo not shown) [Compound D20],Relative fluorescence reading,HEK293T cells; [3],1.23
same,Final product mass,T7 RNA Polymerase; method of Example 20 (Table 4),113 µg
COCC1(F)C(COP(=O)(O)CP(=O)(O)OP(=O)(O)OCC2OC(n3cnc4c(N)ncnc43)C(OC)C2OP(=O)([O-])OCC2OC(n3cnc4c(=O)[nH]c(N)nc43)C(O)C2O)OC(n2c[n+](C)c3c(=O)[nH]c(N)nc32)C1O (stereo not shown) [Compound D23],Relative fluorescence reading,HEK293T cells; [3],0.93
same,Final product mass,T7 RNA Polymerase; method of Example 20 (Table 4),96 µg
COCC1(F)C(COP(=O)(O)OP(=O)(O)CP(=O)(O)OCC2OC(n3cnc4c(N)ncnc43)C(OC)C2OP(=O)([O-])OCC2OC(n3cnc4c(=O)[nH]c(N)nc43)C(O)C2O)OC(n2c[n+](C)c3c(=O)[nH]c(N)nc32)C1O (stereo not shown) [Compound D24],Relative fluorescence reading,HEK293T cells; [3],1.08
same,Final product mass,T7 RNA Polymerase; method of Example 20 (Table 4),83 µg
COCC1(F)C(COP(=O)(O)OP(=O)(O)OP(=O)(O)OP(=O)(O)OCC2OC(n3cnc4c(N)ncnc43)C(OC)C2OP(=O)([O-])OCC2OC(n3cnc4c(=O)[nH]c(N)nc43)C(O)C2O)OC(n2c[n+](C)c3c(=O)[nH]c(N)nc32)C1O (stereo not shown) [Compound D28],Relative fluorescence reading,HEK293T cells; [3],1.12
same,Final product mass,T7 RNA Polymerase; method of Example 20 (Table 4),92 µg
CO[C@@H]1[C@H](OP(=O)([O-])OC[C@H]2O[C@@H](n3cnc4c(=O)[nH]c(N)nc43)[C@H](O)[C@@H]2O)[C@@H](COP(=O)(O)OP(=O)(O)OP(=O)(O)OC[C@H]2O[C@@H](n3c[n+](C)c4c(=O)[nH]c(N)nc43)[C@H](O)[C@]2(F)CNC(C)=O)O[C@H]1n1cnc2c(N)ncnc21 [Compound D31],Relative fluorescence reading,HEK293T cells; [3],1.73
same,Final product mass,T7 RNA Polymerase; method of Example 20 (Table 4),133 µg
CO[C@@H]1[C@H](OP(=O)([O-])OC[C@H]2O[C@@H](n3cnc4c(=O)[nH]c(N)nc43)[C@H](O)[C@@H]2O)[C@@H](COP(=O)(O)OP(=O)(O)OP(=O)(O)OC[C@H]2O[C@@H](n3c[n+](C)c4c(=O)[nH]c(N)nc43)[C@H](O)[C@]2(F)C(=O)N(C)C)O[C@H]1n1cnc2c(N)ncnc21 [Compound D82],Relative fluorescence reading,HEK293T cells; [3],1.63
same,Final product mass,T7 RNA Polymerase; method of Example 20 (Table 4),146 µg
COC1C(OP(=O)([O-])OCC2OC(n3cnc4c(=O)[nH]c(N)nc43)C(O)C2O)C(COP(=O)(O)OP(=O)(O)OP(=O)(O)OCC2OC(n3c[n+](C)c4c(=O)[nH]c(N)nc43)C(O)C2(C)F)OC1n1cnc2c(N)ncnc21 (stereo not shown) [Compound D85],Relative fluorescence reading,HEK293T cells; [3],1.6
same,Final product mass,T7 RNA Polymerase; method of Example 20 (Table 4),120 µg
COCC1(N=[N+]=[N-])C(COP(=O)(O)OP(=O)(O)OP(=O)(O)OCC2OC(n3cnc4c(N)ncnc43)C(OC)C2OP(=O)([O-])OCC2OC(n3cnc4c(=O)[nH]c(N)nc43)C(O)C2O)OC(n2c[n+](C)c3c(=O)[nH]c(N)nc32)C1O (stereo not shown) [Compound D86],Relative fluorescence reading,HEK293T cells; [3],1.35
same,Final product mass,T7 RNA Polymerase; method of Example 20 (Table 4),111 µg
CNc1nc2c(c(=O)[nH]1)[n+](C)cn2[C@@H]1O[C@H](COP(=O)(O)OP(=O)(O)OP(=O)(O)OC[C@H]2O[C@@H](n3cnc4c(N)ncnc43)[C@H](OC)[C@@H]2OP(=O)([O-])OC[C@H]2O[C@@H](n3cnc4c(=O)[nH]c(N)nc43)[C@H](O)[C@@H]2O)[C@@](F)(COC)[C@H]1O [Compound D87],Relative fluorescence reading,HEK293T cells; [3],1.55
same,Final product mass,T7 RNA Polymerase; method of Example 20 (Table 4),98 µg
COCC1(F)C(COP(=O)(O)OP(=O)(O)OP(=O)(O)OCC2OC(n3cnc4c(N)ncnc43)C(OC)C2OP(=O)([O-])OCC2OC(n3cnc4c(=O)[nH]c(N)nc43)C(O)C2O)OC(n2c[n+](Cc3ccccc3)c3c(=O)[nH]c(N)nc32)C1O (stereo not shown) [Compound D88],Relative fluorescence reading,HEK293T cells; [3],2.04
same,Final product mass,T7 RNA Polymerase; method of Example 20 (Table 4),114 µg
CC[n+]1cn(C2OC(COP(=O)(O)OP(=O)(O)OP(=O)(O)OCC3OC(n4cnc5c(N)ncnc54)C(OC)C3OP(=O)([O-])OCC3OC(n4cnc5c(=O)[nH]c(N)nc54)C(O)C3O)C(F)(COC)C2O)c2nc(N)[nH]c(=O)c21 (stereo not shown) [Compound D89],Relative fluorescence reading,HEK293T cells; [3],1.52
same,Final product mass,T7 RNA Polymerase; method of Example 20 (Table 4),110 µg
C=CC[n+]1cn(C2OC(COP(=O)(O)OP(=O)(O)OP(=O)(O)OCC3OC(n4cnc5c(N)ncnc54)C(OC)C3OP(=O)([O-])OCC3OC(n4cnc5c(=O)[nH]c(N)nc54)C(O)C3O)C(F)(COC)C2O)c2nc(N)[nH]c(=O)c21 (stereo not shown) [Compound D90],Relative fluorescence reading,HEK293T cells; [3],1.44
same,Final product mass,T7 RNA Polymerase; method of Example 20 (Table 4),100 µg
COCC1(F)C(COP(=O)(O)OP(=O)(O)OP(=O)(O)OCC2OC(n3cnc4c(N)ncnc43)C(OC)C2OP(=O)([O-])OCC2OC(n3cnc4c(=O)[nH]c(N)nc43)C(O)C2O)OC(n2c[n+](Cc3ccc(F)cc3)c3c(=O)[nH]c(N)nc32)C1O (stereo not shown) [Compound D91],Relative fluorescence reading,HEK293T cells; [3],1.93
same,Final product mass,T7 RNA Polymerase; method of Example 20 (Table 4),113 µg
COCC1(F)C(COP(=O)(O)OP(=O)(O)OP(=O)(O)OCC2OC(n3cnc4c(N)ncnc43)C(OC)C2OP(=O)([O-])OCC2OC(n3cnc4c(=O)[nH]c(N)nc43)C(O)C2O)OC(n2c[n+](Cc3ccc(Cl)cc3)c3c(=O)[nH]c(N)nc32)C1O (stereo not shown) [Compound D92],Relative fluorescence reading,HEK293T cells; [3],1.78
same,Final product mass,T7 RNA Polymerase; method of Example 20 (Table 4),109 µg
COCC1(F)C(COP(=O)(O)OP(=O)(O)OP(=O)(O)OCC2OC(n3cnc4c(N)ncnc43)C(OC)C2OP(=O)([O-])OCC2OC(n3cnc4c(=O)[nH]c(N)nc43)C(O)C2O)OC(n2c[n+](Cc3ccc(C)cc3)c3c(=O)[nH]c(N)nc32)C1O (stereo not shown) [Compound D93],Relative fluorescence reading,HEK293T cells; [3],1.95
same,Final product mass,T7 RNA Polymerase; method of Example 20 (Table 4),105 µg
COCC1(F)C(COP(=O)(O)OP(=O)(O)OP(=O)(O)OCC2OC(n3cnc4c(N)ncnc43)C(OC)C2OP(=O)([O-])OCC2OC(n3cnc4c(=O)[nH]c(N)nc43)C(O)C2O)OC(n2c[n+](Cc3ccc(OC)cc3)c3c(=O)[nH]c(N)nc32)C1O (stereo not shown) [Compound D94],Relative fluorescence reading,HEK293T cells; [3],1.85
same,Final product mass,T7 RNA Polymerase; method of Example 20 (Table 4),116 µg
CNc1ncnc2c1ncn2C1OC(COP(=O)(O)OP(=O)(O)OP(=O)(O)OCC2OC(n3c[n+](C)c4c(=O)[nH]c(N)nc43)C(O)C2(C)F)C(OP(=O)([O-])OCC2OC(n3cnc4c(=O)[nH]c(N)nc43)C(O)C2O)C1OC (stereo not shown) [Compound D95],Relative fluorescence reading,HEK293T cells; [3],0.83
same,Final product mass,T7 RNA Polymerase; method of Example 20 (Table 4),111 µg
CNc1ncnc2c1ncn2C1OC(COP(=O)(O)OP(=O)(O)OP(=O)(O)OCC2OC(n3c[n+](C)c4c(=O)[nH]c(N)nc43)C(O)C2(F)COC)C(OP(=O)([O-])OCC2OC(n3cnc4c(=O)[nH]c(N)nc43)C(O)C2O)C1OC (stereo not shown) [Compound D96],Relative fluorescence reading,HEK293T cells; [3],2.96
same,Final product mass,T7 RNA Polymerase; method of Example 20 (Table 4),94 µg
COCC1(F)C(COP(=O)(O)OP(O)(=S)OP(=O)(O)OCC2OC(n3cnc4c(N)ncnc43)C(OC)C2OP(=O)([O-])OCC2OC(n3cnc4c(=O)[nH]c(N)nc43)C(O)C2O)OC(n2c[n+](C)c3c(=O)[nH]c(N)nc32)C1O (stereo not shown) [Compound D97],Relative fluorescence reading,HEK293T cells; [3],2.05
same,Final product mass,T7 RNA Polymerase; method of Example 20 (Table 4),91 µg
